In this assay the test system is pathological retinas. Kind of assay: Staining of pathological and healthy retinas with SH peptide, confocal images. It is filed as binding, rat. The protocol: FIG. 7 is a series of confocal images of pathological (row A) and healthy (row B) retinas stained with either SH peptide alone (left hand column), the SH peptide and IB4, which decorates endothelial cells and activated macrophages/microglia (middle column), or SH peptide, IB4 and DAPI (right hand column). Yellow indicates either endothelial cells or activated macrophages/microglia that are also stained with the SH peptide.
The following series of experiments are performed to assess if the unique peptide insert of the SH phage is sufficient for recognition of pathological retinal vessels. A peptide corresponding to the unique insert and the 4 flanking residues on the N and 2 residues on the C termini (GGACSTEALRHCG; SEQ ID NO: 3) is synthesized. To facilitate labeling of the peptide biotin is added on the N-terminus, thereby allowing for detection of the peptide with the fluorescently labeled avidin. The labeled SH peptide, along with the scrambled version is labeled and used to stain flat mounts of RA (experienced room air instead of the OIR protocol) or OIR retinas as was done in FIG. 4. The staining protocol is optimized to identify the suitable concentration of peptide, incubation and wash conditions. If the peptides used in these experiments include all of the necessary sequence information to selectively recognize the pathological retinal vessels, then the peptides work comparably to the phage, as shown in FIG. 4.
Peptides corresponding to those expressed on the surface of the SH phage, e.g., those with the amino acid sequence STEALRH (SEQ ID NO: 2), recognized pathological retinas much more effectively than healthy retinas.

As to “STEALRH (Protein from peptide library) [SH peptide]”, the “comparison with the entire SH phage (strength of the signal, absence of background)” value (FIG. 7) is listed as “superior to the entire SH phage”. In addition, where the note is “OIR versus healthy retinas, FIG. 7”, the “staining of pathological versus healthy retinas” value is recorded as “stained pathological retinas much more robustly than healthy retinas”. Moreover, where the note is “pathological retina, in addition to tufts”, the “recognition of areas without overt pathology” value is reported as “recognized areas without overt pathology”.

Values taken from patent publication US8722015B2, “Compositions and methods for treatment of angiogenesis-associated ocular disorders” (The Schepens Eye Research Institute, Inc., priority 2010, dated 2014).
